Where “and” joins values, the source holds several entries; their conditions need not be identical. Equal entries are not always repeated. One block for each compound: values may come before it.
Legend:
[1] = target: T1, dopamine transporter (DAT, SLC6A3) (Homo sapiens, UniProt Q01959); test: radioligand displacement assay on DAT (Eurofins Cerep SA); format: binding; details: for inhibition at 10 µM: read-out: % Inhibition @ 10 µM on DAT; for inhibition at 0.1 µM: read-out: % Inhibition @ 100 nM on DAT
T1 construct: purchased Eurofins Cerep SA

[2] = target: T2, serotonine (5-HT) transporter (SERT, SLC6A4) (Homo sapiens, UniProt P31645); test: radioligand displacement assay on SERT (Eurofins Cerep SA); format: binding; details: for inhibition at 10 µM: read-out: % Inhibition @ 10 µM on SERT; for inhibition at 0.1 µM: read-out: % Inhibition @ 100 nM on SERT
T2 construct: purchased Eurofins Cerep SA

[3] = target: T3, norepinephrine transporter (NET, SLC6A2) (Homo sapiens, UniProt P23975); test: radioligand displacement assay on NET (Eurofins Cerep SA); format: binding; details: for inhibition at 10 µM: read-out: % Inhibition @ 10 µM on NET; for inhibition at 0.01 µM: read-out: % Inhibition @ 10 nM on NET; for inhibition at 0.1 µM: read-out: % Inhibition @ 100 nM on NET
T3 construct: purchased Eurofins Cerep SA

[4] = target: T4, Serotonin 5-HT 2B (Homo sapiens, UniProt P41595); test: in vitro polypharmacology panel: Serotonin 5-HT 2B; format: binding
T4 construct: Eurofins Cerep SA (France), contract assay

[5] = system: mice; test: observation of mice after acute i.p. administration; format: in vivo, C57Bl6/J mice; details: 1.0 or 10 mg/kg i.p., male mice
Source text: Fresh bedding and environmental enrichment were provided weekly.

[6] = target: T5, Dopamine D3 (Homo sapiens, UniProt P35462); test: in vitro polypharmacology panel: Dopamine D3; format: binding
T5 construct: purchased Eurofins Cerep SA

[7] = target: T6, Muscarinic M2 (Homo sapiens, UniProt P08172); test: in vitro polypharmacology panel: Muscarinic M2; format: binding
T6 construct: purchased Eurofins Cerep SA

[8] = target: T7, Serotonin 5-HT 2A (Homo sapiens, UniProt P28223); test: in vitro polypharmacology panel: Serotonin 5-HT 2A; format: binding
T7 construct: Eurofins Cerep SA (France), contract assay

[9] = target: T8, Dopamine D2s (Homo sapiens, UniProt P14416); test: in vitro polypharmacology panel: Dopamine D2s; format: binding
T8 construct: purchased Eurofins Cerep SA

[10] = target: T9, hERG (Homo sapiens, UniProt Q12809); test: in vitro polypharmacology panel: hERG; format: binding
T9 construct: purchased Eurofins Cerep SA

[11] = target: T10, Serotonin 5-HT 1B (Homo sapiens, UniProt P28222); test: in vitro polypharmacology panel: Serotonin 5-HT 1B; format: binding
T10 construct: purchased Eurofins Cerep SA

[12] = target: T11, Dopamine D2L (Homo sapiens, UniProt P14416); test: in vitro polypharmacology panel: Dopamine D2L; format: binding
T11 construct: purchased Eurofins Cerep SA

[13] = target: T12, Muscarinic M1 (Homo sapiens, UniProt P11229); test: in vitro polypharmacology panel: Muscarinic M1; format: binding
T12 construct: purchased Eurofins Cerep SA

[14] = target: T13, ACHe (Homo sapiens, UniProt P22303); test: in vitro polypharmacology panel: ACHe; format: binding
T13 construct: purchased Eurofins Cerep SA

[15] = target: T14, Cannabinoid 2 (Homo sapiens, UniProt P34972); test: in vitro polypharmacology panel: Cannabinoid 2; format: binding
T14 construct: purchased Eurofins Cerep SA

[16] = target: T15, Histaminic H3 (Homo sapiens, UniProt Q9Y5N1); test: in vitro polypharmacology panel: Histaminic H3; format: binding
T15 construct: purchased Eurofins Cerep SA

[17] = target: T16, Serotonin 5-HT 1A (Homo sapiens, UniProt P08908); test: in vitro polypharmacology panel: Serotonin 5-HT 1A; format: binding
T16 construct: purchased Eurofins Cerep SA

[18] = target: T17, HEK-Gly-RA1 (Homo sapiens, UniProt P23415); test: in vitro polypharmacology panel: HEK-Gly-RA1; format: binding
T17 construct: host or cells: HEK

[19] = target: T18, σ-1R (Homo sapiens, UniProt Q99720); test: radioligand displacement assay on σ-1R (Eurofins Cerep SA); format: binding; details: estimated from duplicate dilution series; read-out: IC50 (nM) sigma-1R
T18 construct: purchased Eurofins Cerep SA

[20] = target: T19, Dopamine D1 (Homo sapiens, UniProt P21728); test: in vitro polypharmacology panel: Dopamine D1; format: binding
T19 construct: purchased Eurofins Cerep SA

[21] = target: T20, Histaminic H2 (Homo sapiens, UniProt P25021); test: in vitro polypharmacology panel: Histaminic H2; format: binding
T20 construct: purchased Eurofins Cerep SA

[22] = target: T21, Histaminic H1 (Homo sapiens, UniProt P35367); test: in vitro polypharmacology panel: Histaminic H1; format: binding
T21 construct: purchased Eurofins Cerep SA

[23] = target: T22, Serotonin 5-HT 3 (Homo sapiens, UniProt P46098); test: in vitro polypharmacology panel: Serotonin 5-HT 3; format: binding
T22 construct: Eurofins Cerep SA (France), contract assay

[24] = target: T23, Cannabinoid (Homo sapiens, UniProt P21554); test: in vitro polypharmacology panel: Cannabinoid; format: binding
T23 construct: purchased Eurofins Cerep SA

[25] = in vivo; details: both, C57BL/6JRJ, mouse, 5 mg/kg
[26] = system: dopamine (DA) uptake in PC12 cells; test: cells; details: Rattus norvegicus, PC-12, 2 h, read-out: IC50 (nM) - DA Uptake Inhibition
Source text: The system was operated in positive mode. […] MS peaks were quantified using a calibration curve.

T2 sequence (P31645 whole entry): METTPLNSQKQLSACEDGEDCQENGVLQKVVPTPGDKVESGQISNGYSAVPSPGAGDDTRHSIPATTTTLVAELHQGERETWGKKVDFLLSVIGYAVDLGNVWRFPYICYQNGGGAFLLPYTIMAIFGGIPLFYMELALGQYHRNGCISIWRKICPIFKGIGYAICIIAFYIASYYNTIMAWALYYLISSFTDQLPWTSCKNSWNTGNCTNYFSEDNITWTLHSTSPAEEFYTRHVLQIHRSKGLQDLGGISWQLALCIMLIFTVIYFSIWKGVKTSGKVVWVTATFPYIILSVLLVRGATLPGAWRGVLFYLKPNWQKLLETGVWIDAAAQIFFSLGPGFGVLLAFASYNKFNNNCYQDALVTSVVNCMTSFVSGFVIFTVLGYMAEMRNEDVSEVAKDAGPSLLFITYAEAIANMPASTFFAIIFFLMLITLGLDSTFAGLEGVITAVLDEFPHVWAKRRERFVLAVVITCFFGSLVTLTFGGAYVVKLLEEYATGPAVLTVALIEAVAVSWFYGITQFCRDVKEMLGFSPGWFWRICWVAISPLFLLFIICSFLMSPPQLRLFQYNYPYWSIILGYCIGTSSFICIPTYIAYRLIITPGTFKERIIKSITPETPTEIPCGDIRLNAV
T3 sequence (P23975 whole entry): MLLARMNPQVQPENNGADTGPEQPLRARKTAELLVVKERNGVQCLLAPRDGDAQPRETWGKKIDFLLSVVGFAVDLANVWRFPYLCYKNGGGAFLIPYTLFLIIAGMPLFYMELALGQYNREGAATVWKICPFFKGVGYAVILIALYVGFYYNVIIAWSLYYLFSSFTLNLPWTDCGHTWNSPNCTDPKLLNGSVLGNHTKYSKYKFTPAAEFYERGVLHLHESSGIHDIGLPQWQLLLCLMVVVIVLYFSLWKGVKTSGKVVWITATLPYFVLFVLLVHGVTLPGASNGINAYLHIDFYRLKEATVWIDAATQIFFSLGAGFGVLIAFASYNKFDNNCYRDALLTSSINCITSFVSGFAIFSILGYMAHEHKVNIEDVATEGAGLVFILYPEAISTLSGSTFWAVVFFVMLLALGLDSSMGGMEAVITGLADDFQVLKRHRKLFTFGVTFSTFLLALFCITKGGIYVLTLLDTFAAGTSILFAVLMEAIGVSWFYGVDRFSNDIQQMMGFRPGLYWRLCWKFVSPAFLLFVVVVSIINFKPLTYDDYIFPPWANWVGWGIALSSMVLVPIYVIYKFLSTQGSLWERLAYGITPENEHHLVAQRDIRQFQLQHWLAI
T1 sequence (Q01959 whole entry): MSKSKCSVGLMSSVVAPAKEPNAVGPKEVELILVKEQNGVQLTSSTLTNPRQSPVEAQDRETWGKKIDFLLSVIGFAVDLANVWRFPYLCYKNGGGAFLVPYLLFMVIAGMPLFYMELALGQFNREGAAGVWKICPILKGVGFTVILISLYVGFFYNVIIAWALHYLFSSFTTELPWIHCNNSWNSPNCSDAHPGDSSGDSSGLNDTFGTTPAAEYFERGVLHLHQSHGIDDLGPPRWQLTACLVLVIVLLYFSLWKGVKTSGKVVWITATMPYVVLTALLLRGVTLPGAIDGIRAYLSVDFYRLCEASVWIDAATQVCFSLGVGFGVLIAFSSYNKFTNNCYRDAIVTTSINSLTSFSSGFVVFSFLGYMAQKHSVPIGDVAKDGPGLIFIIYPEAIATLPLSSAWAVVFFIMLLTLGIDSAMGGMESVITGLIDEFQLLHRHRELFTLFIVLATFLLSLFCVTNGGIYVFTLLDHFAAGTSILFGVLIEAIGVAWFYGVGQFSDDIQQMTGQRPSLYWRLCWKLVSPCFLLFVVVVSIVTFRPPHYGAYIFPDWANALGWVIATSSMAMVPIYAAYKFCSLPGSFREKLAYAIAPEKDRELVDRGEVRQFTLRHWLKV
T18 sequence (Q99720 whole entry, species assumed): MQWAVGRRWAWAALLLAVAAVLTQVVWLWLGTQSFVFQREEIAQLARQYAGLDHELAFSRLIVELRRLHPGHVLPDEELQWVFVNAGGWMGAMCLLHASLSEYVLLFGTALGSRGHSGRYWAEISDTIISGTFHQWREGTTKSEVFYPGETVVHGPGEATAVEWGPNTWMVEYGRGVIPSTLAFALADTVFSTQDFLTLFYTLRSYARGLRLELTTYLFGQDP
T21 sequence (P35367 whole entry): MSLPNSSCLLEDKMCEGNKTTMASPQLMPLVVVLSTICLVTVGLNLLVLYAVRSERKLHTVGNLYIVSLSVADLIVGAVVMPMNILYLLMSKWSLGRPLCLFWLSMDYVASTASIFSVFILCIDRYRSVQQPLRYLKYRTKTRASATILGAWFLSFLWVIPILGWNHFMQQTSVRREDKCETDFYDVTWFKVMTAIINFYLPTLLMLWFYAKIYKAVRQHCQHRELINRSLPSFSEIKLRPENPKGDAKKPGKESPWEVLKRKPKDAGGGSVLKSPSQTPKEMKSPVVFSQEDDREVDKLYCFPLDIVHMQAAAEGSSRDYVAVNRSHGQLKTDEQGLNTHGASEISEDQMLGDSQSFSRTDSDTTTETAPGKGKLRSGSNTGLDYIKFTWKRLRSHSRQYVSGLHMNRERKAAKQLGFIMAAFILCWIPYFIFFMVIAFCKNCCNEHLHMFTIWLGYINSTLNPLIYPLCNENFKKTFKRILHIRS
T15 sequence (Q9Y5N1 whole entry): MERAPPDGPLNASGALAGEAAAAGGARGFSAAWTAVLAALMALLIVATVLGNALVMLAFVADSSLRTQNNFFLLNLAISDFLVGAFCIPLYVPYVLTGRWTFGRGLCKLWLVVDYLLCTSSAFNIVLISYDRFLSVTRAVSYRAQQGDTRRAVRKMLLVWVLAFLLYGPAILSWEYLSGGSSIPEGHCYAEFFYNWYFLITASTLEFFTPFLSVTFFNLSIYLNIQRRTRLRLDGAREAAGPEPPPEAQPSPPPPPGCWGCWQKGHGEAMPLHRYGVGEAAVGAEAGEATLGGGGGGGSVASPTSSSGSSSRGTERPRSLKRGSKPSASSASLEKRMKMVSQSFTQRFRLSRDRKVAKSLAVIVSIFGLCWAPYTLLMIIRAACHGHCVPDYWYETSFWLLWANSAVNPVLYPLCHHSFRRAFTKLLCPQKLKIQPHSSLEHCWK
T14 sequence (P34972 whole entry): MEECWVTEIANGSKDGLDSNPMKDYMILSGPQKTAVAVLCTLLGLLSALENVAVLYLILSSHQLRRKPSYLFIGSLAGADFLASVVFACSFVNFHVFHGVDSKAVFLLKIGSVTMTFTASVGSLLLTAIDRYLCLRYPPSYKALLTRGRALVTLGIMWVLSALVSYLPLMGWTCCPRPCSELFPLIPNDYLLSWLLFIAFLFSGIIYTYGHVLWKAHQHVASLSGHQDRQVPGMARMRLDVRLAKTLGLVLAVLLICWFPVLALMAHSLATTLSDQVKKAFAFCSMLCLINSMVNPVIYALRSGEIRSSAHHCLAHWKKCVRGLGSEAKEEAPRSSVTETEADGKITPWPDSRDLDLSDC
T10 sequence (P28222 whole entry): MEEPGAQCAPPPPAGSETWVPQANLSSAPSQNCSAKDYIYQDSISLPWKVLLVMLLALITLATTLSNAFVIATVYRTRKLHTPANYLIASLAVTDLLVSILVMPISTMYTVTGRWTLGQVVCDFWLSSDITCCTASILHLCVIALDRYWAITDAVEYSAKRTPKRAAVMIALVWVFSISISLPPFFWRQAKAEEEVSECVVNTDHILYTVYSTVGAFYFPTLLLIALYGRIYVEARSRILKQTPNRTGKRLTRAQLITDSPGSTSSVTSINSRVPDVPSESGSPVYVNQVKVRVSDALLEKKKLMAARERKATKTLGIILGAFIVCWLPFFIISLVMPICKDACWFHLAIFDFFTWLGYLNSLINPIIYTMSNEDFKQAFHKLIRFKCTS
T7 sequence (P28223 whole entry): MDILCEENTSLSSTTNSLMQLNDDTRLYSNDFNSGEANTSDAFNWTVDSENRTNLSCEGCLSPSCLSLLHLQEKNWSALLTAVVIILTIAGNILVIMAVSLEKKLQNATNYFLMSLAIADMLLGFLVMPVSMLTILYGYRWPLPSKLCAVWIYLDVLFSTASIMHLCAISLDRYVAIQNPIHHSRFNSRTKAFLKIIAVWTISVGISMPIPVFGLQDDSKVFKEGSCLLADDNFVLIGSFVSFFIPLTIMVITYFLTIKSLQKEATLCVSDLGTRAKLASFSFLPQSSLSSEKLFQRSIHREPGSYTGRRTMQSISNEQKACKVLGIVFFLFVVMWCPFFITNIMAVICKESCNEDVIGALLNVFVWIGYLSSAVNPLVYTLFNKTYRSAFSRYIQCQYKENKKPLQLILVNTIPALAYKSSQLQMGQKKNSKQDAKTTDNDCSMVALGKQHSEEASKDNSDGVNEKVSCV
T23 sequence (P21554 whole entry): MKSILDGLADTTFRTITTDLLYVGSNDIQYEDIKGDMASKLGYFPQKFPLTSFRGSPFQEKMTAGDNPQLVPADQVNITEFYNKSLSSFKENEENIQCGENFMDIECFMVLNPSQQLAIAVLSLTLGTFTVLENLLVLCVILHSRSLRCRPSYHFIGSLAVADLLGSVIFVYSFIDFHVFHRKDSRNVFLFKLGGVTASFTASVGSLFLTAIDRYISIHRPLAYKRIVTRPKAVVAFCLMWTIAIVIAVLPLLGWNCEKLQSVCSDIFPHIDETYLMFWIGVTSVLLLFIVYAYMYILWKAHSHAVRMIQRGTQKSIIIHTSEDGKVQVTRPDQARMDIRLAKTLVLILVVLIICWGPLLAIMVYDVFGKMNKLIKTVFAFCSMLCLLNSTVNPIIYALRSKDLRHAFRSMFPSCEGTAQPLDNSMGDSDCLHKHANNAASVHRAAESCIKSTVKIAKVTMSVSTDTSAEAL

Compound: C1CC[C@H]2NCC[C@H]2NC1 (relative stereo) [2a, Decahydropyrrolo[3,2-b]azepine]
inhibition at 10 µM [1]: 6.4%
inhibition at 10 µM [2]: 7.6%
inhibition at 10 µM [3]: 1.7%

Compound: Clc1ccccc1CN1CCCC[C@H]2NCC[C@H]21 [(R,R)-60, (3aR,8aR)-4-(2-Chlorobenzyl)decahydropyrrolo[3,2-b]azepine]
inhibition at 0.1 µM [1]: 37.5%
inhibition at 0.1 µM [2]: 69.1%
inhibition at 0.01 µM [3]: 24%
inhibition at 0.1 µM [3]: 83.4%

Compound: c1ccc(CN2CCC[C@H]3NCCCC[C@@H]32)cc1 (relative stereo) [27b, 1-Benzyldecahydro-1H-pyrido[3,2-b]azepine]
inhibition at 10 µM [1]: 19.4%
inhibition at 10 µM [2]: 6.9%
inhibition at 10 µM [3]: -5.1%

Compound: c1ccc(CN2CCCC[C@H]3NCC[C@H]32)cc1 [(R,R)-1a, (3aR,8aR)-4-Benzyldecahydropyrrolo[3,2-b]azepine]
Serotonin 5-HT 2B (5 µM) [4]: 29.7
phenotype upon acute treatment ([5]; already after 40 min): pronounced sedative or lethargic phenotype
signs of acute toxicity (piloerection, hunched posture, convulsions, gastrointestinal distress) [5]: no signs of acute toxicity
Dopamine D3 (5 µM) [6]: 6.1
Muscarinic M2 (5 µM) [7]: 28.5
IC50 [1]: 230 ± 12 nM
inhibition at 0.1 µM [1]: 29.8%
inhibition at 10 µM [1]: 97.2%
Serotonin 5-HT 2A (5 µM) [8]: -0.9
Dopamine D2s (5 µM) [9]: 11.7
hERG (5 µM) [10]: 12.2
Serotonin 5-HT 1B (5 µM) [11]: -19.8
Dopamine D2L (5 µM) [12]: -0.3
Muscarinic M1 (5 µM) [13]: 78.7
IC50 [2]: 250 ± 32 nM
inhibition at 0.1 µM [2]: 26.3%
inhibition at 10 µM [2]: 95.9%
ACHe (5 µM) [14]: 3.8
Cannabinoid 2 (5 µM) [15]: 11.9
Histaminic H3 (5 µM) [16]: 8.6
Serotonin 5-HT 1A (5 µM) [17]: 18.9
HEK-Gly-RA1 (5 µM) [18]: 4
IC50 [19]: ~110 nM and 110 nM
Dopamine D1 (5 µM) [20]: 3.5
Histaminic H2 [21]: -2
Histaminic H1 (5 µM) [22]: -4.3
Serotonin 5-HT 3 (5 µM) [23]: 5.2
Cannabinoid (5 µM) [24]: -13.4
AUC ([25]; iv): 799 ng·h/mL
AUC ([25]; po): 36.6 ng·h/mL
Tmax ([25]; po): 15 min

Compound: c1ccc(CN2CC[C@H]3NCCCC[C@@H]32)cc1 (relative stereo) [17b, 1-Benzyldecahydropyrrolo[3,2-b]azepine]
inhibition at 10 µM [1]: 89%
inhibition at 10 µM [2]: 13.7%
inhibition at 10 µM [3]: 10.8%

Compound: c1ccc(CN2CC[C@H]3NCCCC[C@H]32)cc1 (relative stereo) [17a, 1-Benzyldecahydropyrrolo[3,2-b]azepine]
inhibition at 10 µM [1]: 78.3%
inhibition at 10 µM [2]: 21.4%
inhibition at 10 µM [3]: 21.7%

Compound: C1CC[C@@H]2NCC[C@H]2NC1 (relative stereo) [2b, Decahydropyrrolo[3,2-b]azepine]
inhibition at 10 µM [1]: 13.6%
inhibition at 10 µM [2]: -1.9%
inhibition at 10 µM [3]: 3%

Compound: Clc1cccc(CN2CCCC[C@H]3NCC[C@H]32)c1 [(R,R)-59, (3aR,8aR)-4-(3-chlorobenzyl)decahydropyrrolo[3,2-b]azepine]
inhibition at 0.1 µM [1]: 74.9%
inhibition at 0.1 µM [2]: 98%
inhibition at 0.01 µM [3]: 55.9%
inhibition at 0.1 µM [3]: 97.1%

Compound: c1ccc(CN2CCCC[C@@H]3NCC[C@H]32)cc1 [1b, 4-Benzyldecahydropyrrolo[3,2-b]azepine]
inhibition at 10 µM [1]: 81.8%
inhibition at 10 µM [2]: 68.6%

Compound: COc1ccc(C(CN(C)C)C2(O)CCCCC2)cc1 (stereo not shown) [Venla, venlafaxine]
IC50 [26]: 1340 ± 128 nM

Compound: c1ccc(CN2CCCC[C@@H]3NCCCC[C@H]32)cc1 [44b, 6-Benzyldodecahydroazepino[3,2-b]azepine]
inhibition at 10 µM [1]: 74.9%
inhibition at 10 µM [2]: 59.4%
inhibition at 10 µM [3]: 31.5%

Compound: Clc1ccc(CN2CCCC[C@H]3NCC[C@H]32)cc1 [(R,R)-58, (3aR,8aR)-4-(4-Chlorobenzyl)decahydropyrrolo[3,2-b]azepine]
inhibition at 0.1 µM [1]: 12%
inhibition at 0.1 µM [2]: 78.2%
inhibition at 0.01 µM [3]: -15.2%
inhibition at 0.1 µM [3]: 6.4%

Compound: c1ccc(CN2CCCC[C@@H]3NCC[C@@H]32)cc1 [(S,S)-1a, (3aS,8aS)-4-Benzyldecahydropyrrolo[3,2-b]azepine]
inhibition at 10 µM [1]: 94.4%
inhibition at 10 µM [2]: 91%

Compound: Brc1cccc(CN2CCCC[C@H]3NCC[C@H]32)c1 [(R,R)-61, (3aR,8aR)-4-(3-Bromobenzyl)decahydropyrrolo[3,2-b]azepine]
inhibition at 0.1 µM [1]: 58%
inhibition at 0.1 µM [2]: 96.9%
inhibition at 0.01 µM [3]: 56.7%
inhibition at 0.1 µM [3]: 91.4%

Compound: c1ccc(CN2CCCC[C@@H]3NCCC[C@H]32)cc1 [40b, 5-Benzyldecahydro-1H-pyrido[3,2-b]azepine]
inhibition at 10 µM [1]: 41%
inhibition at 10 µM [2]: 71%
inhibition at 10 µM [3]: 60%

IC50 [26]: 11 ± 2.3 nM
Compound: Clc1ccc2c(c1)C(N1CCNCC1)=Nc1ccccc1O2 [Amox, amoxapine]

Compound: C1CCC2NCCCCC2NC1 (stereo not shown) [4b, Dodecahydroazepino[3,2-b]azepine]
inhibition at 10 µM [1]: -0.5%
inhibition at 10 µM [2]: -1%
inhibition at 10 µM [3]: -7.1%

Compound: (3aR,8aR)-4-(2,3-Dichlorobenzyl)decahydropyrrolo[3,2-b]azepine [(R,R)-62]
% Inhibition @ 100 nM on DAT [1]: 15.4%
% Inhibition @ 100 nM on SERT [2]: 97.8%
% Inhibition @ 10 nM on NET [3]: 74.8%
% Inhibition @ 100 nM on NET [3]: 96.4%

Compound: c1ccc(CN2CCC[C@H]3NCCCC[C@H]32)cc1 (relative stereo) [27a, 1-Benzyldecahydro-1H-pyrido[3,2-b]azepine]
inhibition at 10 µM [1]: 85.5%
inhibition at 10 µM [2]: 87.7%
inhibition at 10 µM [3]: 13.9%

Compound: C1CC[C@@H]2NCCC[C@H]2NC1 (relative stereo) [3b]
inhibition at 10 µM [1]: -5.2%
inhibition at 10 µM [2]: 11.8%
inhibition at 10 µM [3]: 8.8%

Compound: c1ccc(CN2CCCC[C@H]3NCCC[C@H]32)cc1 [40a, 5-Benzyldecahydro-1H-pyrido[3,2-b]azepine]
inhibition at 10 µM [1]: 94.4%
inhibition at 10 µM [2]: 91%
inhibition at 10 µM [3]: 88.7%

Compound: (3aR,8aR)-4-(3,5-Dichlorobenzyl)decahydropyrrolo[3,2-b]azepine [(R,R)-63]
% Inhibition @ 100 nM on DAT [1]: 89%
% Inhibition @ 100 nM on SERT [2]: 99.7%
% Inhibition @ 10 nM on NET [3]: 63.4%
% Inhibition @ 100 nM on NET [3]: 93.7%

— article PMC12067442 (Journal of Medicinal Chemistry, 2025)
